Data as given in ChEMBL document CHEMBL5465560, “Selectivity Literature for EUbOPEN Chemogenomic Library” (2024).

Tests used:
[1] = molecular target: T1, Tyrosine-protein kinase Tec (Homo sapiens) (UniProt P42680); assay: Selectivity interaction (KinomeScan (DiscoverX)) EUB0000655a TEC; settings: at 10 µM
T1 sequence (whole entry): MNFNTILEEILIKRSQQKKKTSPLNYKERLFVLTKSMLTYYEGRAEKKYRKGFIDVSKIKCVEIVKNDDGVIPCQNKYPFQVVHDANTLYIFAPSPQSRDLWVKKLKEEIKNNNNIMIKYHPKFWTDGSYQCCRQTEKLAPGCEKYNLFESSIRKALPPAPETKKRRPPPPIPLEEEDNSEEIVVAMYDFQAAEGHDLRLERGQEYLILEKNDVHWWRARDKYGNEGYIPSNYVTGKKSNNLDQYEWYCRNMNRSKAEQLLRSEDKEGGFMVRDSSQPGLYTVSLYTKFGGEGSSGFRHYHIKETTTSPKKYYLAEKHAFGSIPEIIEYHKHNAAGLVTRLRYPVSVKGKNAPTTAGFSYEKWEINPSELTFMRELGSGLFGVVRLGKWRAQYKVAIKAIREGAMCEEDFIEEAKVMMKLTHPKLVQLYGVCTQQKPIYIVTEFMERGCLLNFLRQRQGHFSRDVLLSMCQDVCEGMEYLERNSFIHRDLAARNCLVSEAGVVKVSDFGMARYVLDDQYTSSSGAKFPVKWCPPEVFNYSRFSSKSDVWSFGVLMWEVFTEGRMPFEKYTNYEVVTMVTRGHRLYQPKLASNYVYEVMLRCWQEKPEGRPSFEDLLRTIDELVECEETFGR

[2] = molecular target: Ephrin type-A receptor 7 (Homo sapiens) (UniProt Q15375); assay: Selectivity interaction (KinomeScan (DiscoverX)) EUB0001079a EPHA7; settings: at 1 µM
[3] = molecular target: Serine/threonine-protein kinase B-raf (Homo sapiens) (UniProt P15056); assay: (§1) Selectivity interaction (KinomeScan (DiscoverX)) EUB0001079a BRAF; settings: at 1 µM
Serine/threonine-protein kinase B-raf (Homo sapiens), sequence (P15056 whole entry): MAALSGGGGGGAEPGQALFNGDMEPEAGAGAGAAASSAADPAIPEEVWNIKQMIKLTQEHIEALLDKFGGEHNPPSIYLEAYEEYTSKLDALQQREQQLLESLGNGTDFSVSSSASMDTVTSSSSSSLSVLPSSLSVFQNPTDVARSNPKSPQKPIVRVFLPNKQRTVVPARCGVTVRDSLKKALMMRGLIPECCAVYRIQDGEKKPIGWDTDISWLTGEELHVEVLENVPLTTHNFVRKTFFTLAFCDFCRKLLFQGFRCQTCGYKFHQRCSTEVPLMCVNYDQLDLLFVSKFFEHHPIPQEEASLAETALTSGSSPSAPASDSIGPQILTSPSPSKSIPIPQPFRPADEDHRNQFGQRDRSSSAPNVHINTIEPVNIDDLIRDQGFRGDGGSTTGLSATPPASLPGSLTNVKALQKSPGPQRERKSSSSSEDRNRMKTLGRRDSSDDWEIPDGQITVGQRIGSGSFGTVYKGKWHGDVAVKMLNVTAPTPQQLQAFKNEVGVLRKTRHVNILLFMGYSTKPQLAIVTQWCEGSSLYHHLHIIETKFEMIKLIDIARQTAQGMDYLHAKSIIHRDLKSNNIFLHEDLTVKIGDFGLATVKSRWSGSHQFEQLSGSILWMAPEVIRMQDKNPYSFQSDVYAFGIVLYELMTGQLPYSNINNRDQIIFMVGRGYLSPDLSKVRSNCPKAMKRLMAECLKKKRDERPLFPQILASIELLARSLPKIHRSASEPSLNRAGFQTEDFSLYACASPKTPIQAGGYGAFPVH

[4] = tested on: Serine/threonine-protein kinase B-raf (Homo sapiens), P15056 [V600E]; assay: as §1; settings: at 1 µM
Serine/threonine-protein kinase B-raf (Homo sapiens), P15056 [V600E], sequence (P15056 whole entry V600E): as the sequence (P15056 whole entry) above, with V600E counted along it

[5] = molecular target: T2, Cyclin-dependent kinase 2 (Homo sapiens, UniProt P24941); assay: Selectivity interaction (Kinase panel (KiNativ target engagement assay in Jurkat cells)) EUB0001635a CDK2; type: cell-based; settings: at 1 µM
[6] = tested on: Tyrosine-protein kinase ABL1 (Homo sapiens), P00519 [Q252H]; settings: at 10 µM
[7] = molecular target: Ribosomal protein S6 kinase beta-1 (Homo sapiens, UniProt P23443); settings: at 10 µM
Ribosomal protein S6 kinase beta-1, sequence (P23443 whole entry, looked up): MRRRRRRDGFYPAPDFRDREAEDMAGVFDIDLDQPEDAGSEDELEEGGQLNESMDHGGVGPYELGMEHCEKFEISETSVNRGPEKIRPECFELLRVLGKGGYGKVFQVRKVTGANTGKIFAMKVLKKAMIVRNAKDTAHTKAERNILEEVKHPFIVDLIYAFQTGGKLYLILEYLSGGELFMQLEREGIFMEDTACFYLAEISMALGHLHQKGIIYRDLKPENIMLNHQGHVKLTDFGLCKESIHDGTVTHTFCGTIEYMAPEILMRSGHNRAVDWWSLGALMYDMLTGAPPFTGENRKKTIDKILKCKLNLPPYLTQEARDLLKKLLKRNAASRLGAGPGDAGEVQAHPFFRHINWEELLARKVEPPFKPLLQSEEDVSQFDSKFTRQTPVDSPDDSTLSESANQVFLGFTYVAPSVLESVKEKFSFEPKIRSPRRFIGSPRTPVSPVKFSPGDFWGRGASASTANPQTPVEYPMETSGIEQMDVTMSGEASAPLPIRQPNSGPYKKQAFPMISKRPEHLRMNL

[8] = molecular target: Activin receptor type-1-like (Homo sapiens) (UniProt P37023); assay: Selectivity interaction (LanthaScreen Eu Kinase Binding Assay) EUB0001632a ACVRL1; settings: at 10 µM
Activin receptor type-1-like (Homo sapiens), sequence (P37023 whole entry): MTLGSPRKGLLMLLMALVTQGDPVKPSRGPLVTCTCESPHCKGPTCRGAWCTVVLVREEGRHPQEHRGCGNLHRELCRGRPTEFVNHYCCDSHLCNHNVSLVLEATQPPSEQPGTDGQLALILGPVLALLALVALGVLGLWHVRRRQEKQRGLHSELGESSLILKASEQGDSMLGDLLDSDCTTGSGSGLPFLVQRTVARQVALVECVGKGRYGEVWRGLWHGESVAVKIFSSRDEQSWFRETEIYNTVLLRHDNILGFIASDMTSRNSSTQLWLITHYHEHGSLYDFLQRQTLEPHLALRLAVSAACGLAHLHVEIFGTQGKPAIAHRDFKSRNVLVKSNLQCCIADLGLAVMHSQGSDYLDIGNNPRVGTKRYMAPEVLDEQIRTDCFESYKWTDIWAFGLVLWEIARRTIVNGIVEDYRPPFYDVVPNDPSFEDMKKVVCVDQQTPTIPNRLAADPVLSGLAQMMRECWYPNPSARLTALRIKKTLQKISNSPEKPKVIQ

[9] = molecular target: 5'-AMP-activated protein kinase catalytic subunit alpha-1 (Homo sapiens, UniProt Q13131); assay: Selectivity interaction (ActivX KiNativ screen (kinase selectivity in THP-1 cell lysates)) EUB0000639a PRKAA1; type: subcellular; settings: lysate, at 0.2 µM
5'-AMP-activated protein kinase catalytic subunit alpha-1, sequence (Q13131 whole entry, looked up): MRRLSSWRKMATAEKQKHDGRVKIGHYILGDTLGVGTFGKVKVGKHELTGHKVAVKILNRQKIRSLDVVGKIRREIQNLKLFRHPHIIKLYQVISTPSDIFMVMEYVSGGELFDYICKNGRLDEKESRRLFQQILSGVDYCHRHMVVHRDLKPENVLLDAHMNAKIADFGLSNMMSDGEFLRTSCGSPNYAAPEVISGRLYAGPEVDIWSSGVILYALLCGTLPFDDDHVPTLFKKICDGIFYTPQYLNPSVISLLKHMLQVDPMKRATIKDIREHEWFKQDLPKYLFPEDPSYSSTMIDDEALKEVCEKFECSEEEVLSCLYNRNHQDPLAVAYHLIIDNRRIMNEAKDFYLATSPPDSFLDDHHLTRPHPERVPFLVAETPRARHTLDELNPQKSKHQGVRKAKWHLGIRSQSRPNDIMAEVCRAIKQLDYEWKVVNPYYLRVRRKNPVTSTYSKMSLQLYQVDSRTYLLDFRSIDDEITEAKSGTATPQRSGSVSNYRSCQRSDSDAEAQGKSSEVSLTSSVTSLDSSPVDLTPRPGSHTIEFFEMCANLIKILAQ

[10] = molecular target: T2, Cyclin-dependent kinase 2; assay: Selectivity interaction (ActivX KiNativ screen (kinase selectivity in THP-1 cell lysates)) EUB0000639a CDK2; type: subcellular; settings: lysate, at 1 µM
[11] = molecular target: T3, Phosphatidylinositol 5-phosphate 4-kinase type-2 gamma (Homo sapiens) (UniProt Q8TBX8); assay: Selectivity interaction (KinomeScan (DiscoverX)) EUB0001049a PIP4K2C; settings: at 1 µM
T3 sequence (whole entry): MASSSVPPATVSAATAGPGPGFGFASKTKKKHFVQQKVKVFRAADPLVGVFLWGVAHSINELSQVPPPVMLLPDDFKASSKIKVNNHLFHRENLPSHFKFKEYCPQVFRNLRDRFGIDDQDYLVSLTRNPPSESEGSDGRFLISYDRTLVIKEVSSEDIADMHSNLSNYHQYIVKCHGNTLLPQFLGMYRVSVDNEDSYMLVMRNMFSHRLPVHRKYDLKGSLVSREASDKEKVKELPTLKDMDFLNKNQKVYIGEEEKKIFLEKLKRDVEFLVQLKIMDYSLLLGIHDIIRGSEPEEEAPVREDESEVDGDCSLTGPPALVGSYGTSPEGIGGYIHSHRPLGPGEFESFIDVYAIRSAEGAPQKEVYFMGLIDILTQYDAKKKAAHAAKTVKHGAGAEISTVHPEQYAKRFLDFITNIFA

[12] = molecular target: Mitogen-activated protein kinase 6 (Homo sapiens) (UniProt Q16659); assay: Selectivity interaction (KinomeScan (DiscoverX)) EUB0000695a MAPK6; settings: at 100 nM
Mitogen-activated protein kinase 6 (Homo sapiens), sequence (Q16659 whole entry): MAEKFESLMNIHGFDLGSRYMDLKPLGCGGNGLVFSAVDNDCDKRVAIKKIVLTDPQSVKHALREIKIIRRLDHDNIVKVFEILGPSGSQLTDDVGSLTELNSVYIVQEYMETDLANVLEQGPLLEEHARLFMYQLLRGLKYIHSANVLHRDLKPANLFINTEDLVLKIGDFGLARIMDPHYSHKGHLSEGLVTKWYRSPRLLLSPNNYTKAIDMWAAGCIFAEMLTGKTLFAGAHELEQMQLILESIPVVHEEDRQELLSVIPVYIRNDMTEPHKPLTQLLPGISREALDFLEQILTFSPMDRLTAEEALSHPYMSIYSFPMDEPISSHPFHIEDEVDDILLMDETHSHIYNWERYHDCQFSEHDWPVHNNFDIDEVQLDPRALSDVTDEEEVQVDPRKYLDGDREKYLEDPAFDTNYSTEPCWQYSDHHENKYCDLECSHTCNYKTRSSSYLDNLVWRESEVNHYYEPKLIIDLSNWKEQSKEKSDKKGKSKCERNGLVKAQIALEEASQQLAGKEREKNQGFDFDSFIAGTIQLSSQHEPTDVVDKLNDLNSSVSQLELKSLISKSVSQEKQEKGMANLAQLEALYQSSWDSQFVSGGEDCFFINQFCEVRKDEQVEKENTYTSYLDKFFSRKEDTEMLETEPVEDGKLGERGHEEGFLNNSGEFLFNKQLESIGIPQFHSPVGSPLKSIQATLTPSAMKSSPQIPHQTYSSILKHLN

[13] = molecular target: T4, Ephrin type-B receptor 4 (Homo sapiens) (UniProt P54760); assay: Selectivity interaction (KinomeScan (DiscoverX)) EUB0000618a EPHB4; settings: at 10 µM
T4 sequence (whole entry): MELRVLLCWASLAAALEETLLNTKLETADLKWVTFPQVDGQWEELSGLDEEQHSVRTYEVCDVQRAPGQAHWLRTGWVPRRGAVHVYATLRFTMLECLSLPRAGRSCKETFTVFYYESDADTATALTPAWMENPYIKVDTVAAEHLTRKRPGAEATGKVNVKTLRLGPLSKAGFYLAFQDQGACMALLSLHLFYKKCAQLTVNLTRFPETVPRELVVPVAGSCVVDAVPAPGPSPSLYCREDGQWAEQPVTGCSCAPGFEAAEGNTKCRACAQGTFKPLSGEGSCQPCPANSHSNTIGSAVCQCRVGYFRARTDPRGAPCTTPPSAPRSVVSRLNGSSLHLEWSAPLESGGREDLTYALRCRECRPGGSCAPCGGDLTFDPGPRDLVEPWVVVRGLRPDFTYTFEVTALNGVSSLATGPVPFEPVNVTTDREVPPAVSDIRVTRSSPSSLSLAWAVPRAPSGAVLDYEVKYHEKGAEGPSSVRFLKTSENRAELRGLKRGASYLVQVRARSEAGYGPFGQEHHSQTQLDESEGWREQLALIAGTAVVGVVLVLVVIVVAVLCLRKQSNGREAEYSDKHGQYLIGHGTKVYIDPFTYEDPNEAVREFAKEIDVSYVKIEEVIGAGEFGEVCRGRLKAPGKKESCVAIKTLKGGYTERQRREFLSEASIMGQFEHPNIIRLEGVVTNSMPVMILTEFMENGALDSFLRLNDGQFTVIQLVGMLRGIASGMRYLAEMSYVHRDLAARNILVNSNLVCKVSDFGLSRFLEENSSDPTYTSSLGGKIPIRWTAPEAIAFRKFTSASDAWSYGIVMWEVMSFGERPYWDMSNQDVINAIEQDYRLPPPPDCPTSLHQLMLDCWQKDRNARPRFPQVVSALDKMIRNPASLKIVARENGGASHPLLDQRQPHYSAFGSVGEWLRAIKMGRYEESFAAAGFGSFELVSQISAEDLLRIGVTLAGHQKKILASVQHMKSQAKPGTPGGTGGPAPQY

[14] = molecular target: Macrophage-stimulating protein receptor (Homo sapiens, UniProt Q04912); assay: Selectivity interaction (Ambit KINOMEscan and KiNATiv profiling in Jurkat cells) EUB0000090b MST1R; type: cell-based; settings: at 1 µM
Macrophage-stimulating protein receptor, sequence (Q04912 25-304 limits assumed): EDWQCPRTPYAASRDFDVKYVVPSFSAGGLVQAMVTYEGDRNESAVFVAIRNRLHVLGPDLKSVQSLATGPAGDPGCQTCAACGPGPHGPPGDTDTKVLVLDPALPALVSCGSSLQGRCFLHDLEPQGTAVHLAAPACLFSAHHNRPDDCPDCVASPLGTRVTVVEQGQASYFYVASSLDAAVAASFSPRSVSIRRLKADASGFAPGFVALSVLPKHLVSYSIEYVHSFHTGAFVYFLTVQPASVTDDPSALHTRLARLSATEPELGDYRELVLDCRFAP
Macrophage-stimulating protein receptor, sequence (Q04912 310-1400 limits assumed): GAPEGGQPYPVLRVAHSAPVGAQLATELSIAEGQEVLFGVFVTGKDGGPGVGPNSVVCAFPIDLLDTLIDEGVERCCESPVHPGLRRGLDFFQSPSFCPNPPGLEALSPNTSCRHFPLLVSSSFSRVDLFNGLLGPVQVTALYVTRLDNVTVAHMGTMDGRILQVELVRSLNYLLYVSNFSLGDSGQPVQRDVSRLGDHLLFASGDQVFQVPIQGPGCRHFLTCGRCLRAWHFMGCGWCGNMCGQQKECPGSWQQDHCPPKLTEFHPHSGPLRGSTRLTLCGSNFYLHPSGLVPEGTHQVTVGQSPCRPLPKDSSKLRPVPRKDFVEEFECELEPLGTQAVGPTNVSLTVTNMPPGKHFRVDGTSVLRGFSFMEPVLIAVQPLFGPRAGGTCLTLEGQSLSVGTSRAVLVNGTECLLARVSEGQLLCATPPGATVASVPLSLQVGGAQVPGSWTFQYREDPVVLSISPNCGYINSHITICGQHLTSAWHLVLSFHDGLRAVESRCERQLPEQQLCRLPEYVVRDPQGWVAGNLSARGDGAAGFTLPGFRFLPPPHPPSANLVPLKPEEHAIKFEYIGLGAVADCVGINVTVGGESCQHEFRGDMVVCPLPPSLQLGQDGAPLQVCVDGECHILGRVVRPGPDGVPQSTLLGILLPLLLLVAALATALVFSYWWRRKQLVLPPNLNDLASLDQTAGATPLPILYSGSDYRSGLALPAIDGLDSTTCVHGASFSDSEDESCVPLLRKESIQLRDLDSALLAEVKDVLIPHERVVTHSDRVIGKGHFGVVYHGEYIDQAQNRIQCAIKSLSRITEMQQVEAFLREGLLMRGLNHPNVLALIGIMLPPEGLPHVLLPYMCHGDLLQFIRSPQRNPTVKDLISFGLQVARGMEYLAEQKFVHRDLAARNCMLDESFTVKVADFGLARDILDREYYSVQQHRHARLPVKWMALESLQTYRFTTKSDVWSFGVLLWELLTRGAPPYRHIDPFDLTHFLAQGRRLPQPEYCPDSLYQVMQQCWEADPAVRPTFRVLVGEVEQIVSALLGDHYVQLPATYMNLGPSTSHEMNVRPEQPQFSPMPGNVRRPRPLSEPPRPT

CN(C)CCOc1ccc(-c2nc(-c3ccncc3)c(-c3ccc4c(c3)CC/C4=N\O)[nH]2)cc1 gave a % of control [1] of 91%.

Nc1cnc(N2CCc3cc(S(=O)(=O)Nc4c(F)cc(Cl)cc4F)cc(N4CCCC4=O)c32)nc1 [TP-020n] gave a % of control [2] of 85%, a % of control [3] of 98% and a % of control [4] of 100%.

C=CC(=O)Nc1ccc(C(=O)Nc2[nH]nc3c2CN(C(=O)N[C@H](CN(C)C)c2ccccc2)C3(C)C)cc1 showed a % of engagement ([5]; Selectivity number of off-targets 0.0, Selectivity number of targets 233.0, Source Knowledge https://www.sciencedirect.com/science/article/pii/S2451945619300674?via%3Dihub) of -25.3% and a % of engagement [5] of -16.4%.

In the case of Cc1cc([C@@H](C)Nc2ccccc2C(=O)O)c2nc(N3CCOCC3)cc(=O)n2c1 [AZD-6482], the % of control [6] is reported as 100% and the % of control [7] is reported as 72%.

Cn1cc(-n2cnc3c(NCc4nc5cc(Cl)c(Cl)cc5[nH]4)nc(N4CCOCC4)nc32)cn1 was tested, and the % of inhibition [8] was -13%.

For CC[C@@H]1[C@H](F)C(=O)N[C@@H]1COc1nccc2cc(C(N)=O)c(OC)cc12 [ZIMLOVISERTIB], the % of inhibition [9] was -4.3% and the % of inhibition [10] was -10.5%.

COc1cc(Nc2nc(C)cc(-c3cnn4nc(OC)ccc34)n2)cc(C(F)(F)F)c1 showed a % of control [11] of 100%.

Molecule Cc1cc(F)c(C(=O)Nc2cccc(-c3nncn3C(C)C)n2)cc1-n1cnc(C2CC2)c1 has a % of control [12] of 81%.

Work on O[C@H]1CC[C@H](Nc2ncc3nc(Nc4c(F)cc(F)cc4F)n([C@H]4CCOC4)c3n2)CC1 yielded a % of control [13] of 100%.

Molecule CN(C)C/C=C/C(=O)Nc1ccc(C(=O)N2CCCC(Nc3ncc(Cl)c(-c4c[nH]c5ccccc45)n3)C2)cc1 (stereo not given) has a % of control [14] of 90%.
